According to US5130139A, “Reduction or prevention of skin irritation by drugs” (Alza Corporation, priority 1990, dated 1992):
Read-outs that look alike come from different tables or passages of the source.

What was measured:
human skin fibroblasts [1] = assay: in vitro
Source text: (§1) The following examples are offered to illustrate the practice of the present invention. It is important to note that this invention is not limited to any particular transdermal device or other form of transdermal delivery, as are commonly known in the art. Nor is this invention limited to a particular formulation. Therefore, the embodiments described herein are merely illustrative and are not intended to limit the scope of the invention in any manner.
(§2) Four beta-adrenergic blocking drugs (propranolol, labetalol, pindolol and timolol) were tested for their uptake and their toxicity in human skin fibroblasts.
(§3) To estimate the toxicity of the tested compounds, the general procedure of the MTT assay (Swisher et al., Models Dermatol., Maibach and Lowe (eds.), Basel, Karger, vol. 4, pp 131-137, 1989) was used. Cell cultures of fibroblasts were incubated for 16 hours in medium containing a range of concentrations of the drug being tested. At the end of the incubation time, the medium was removed and replaced with medium containing MTT at 0.5 mg/ml. After 3 hours, this medium was discarded and the blue formazan, a metabolite of MTT produced only by viable cells, was dissolved in acidified isopropanol. Absorbance of this solution was measured at 540 nm against a reference wavelength of 660 nm. Results were then expressed as percent of control cultures incubated in the same conditions without drug or agent.
(§4) The treated cells were also tested for the cytotoxic effect of propranolol in the presence of various concentrations of monensin, following the procedures of Example 1.
(§5) They were tested with 10^-6 M monensin.
(§6) In the Table, the "factor of protection" is the ratio of the ID50 of the toxic drug incubated with monensin to the ID50 of the toxic drug alone.
(§7) The action of various ionophores and amphiphilic amines on the cytotoxicity of propranolol and chloroquine was determined, following the procedures of Example 1. The "factor of protection" corresponds to the ratio of the ID50 of the toxic drug incubated with uptake-inhibiting agent at the indicated concentration, to the ID50 of the toxic drug alone. The "mode of action" indicates either the ions which are preferentially carried by the tested ionophores or that the agent acts by competition.

human skin fibroblasts [2] = assay: Uptake/accumulation of radiolabelled drug in fibroblasts, 16 h incubation; assay type: cell-based
Method: For the uptake studies, cell cultures of fibroblasts were exposed to medium containing the radioactive-labelled drug and incubated for 16 hours. The uptake process was then stopped by removing the medium and rapidly washing the cells with cold PBS three times. The cells were then extracted with methanol which was transferred to counting vials, and the amount of radioactivity was measured by liquid scintillation. To compensate for non-specific binding to the plastic of the wells, wells containing no cells were incubated with the radiolabelled drugs under the same conditions. The radioactive content of those wells was taken as the control value and substracted form the radioactive content of the wells containing cells.
Fibroblast cell cultures were incubated for 16 hours in propranolol (2×10^-7 M) with various concentrations of monensin. The accumulation of propranolol in the cells was then determined, following the procedures of Example 1. […] At 10^-5 M monensin, propranolol uptake was negligible even though the cells were fully viable.

[3] = test system: skin irritation (erythema), volar forearm; assay: In vivo skin irritation (erythema, Minolta Chromameter) after 16 h application of gel to volar forearm; set-up: species or system human; details: monensin 5.0 wt % with chloroquine 1.0 wt % gel
Method: The resulting gels were buffered to pH 8.5 with EPPS buffer and contained 30 wt % ethanol to maintain the solubility of the drug.
All of the gels were placed in such manner. After 16 hours, each cup was removed and the site was washed. At various times thereafter the sites were observed and the intensity of the irritant reaction (the erythema) was scored by measuring skin color with an electronic instrument, the Minolta Chromameter.

[4] = In vitro permeation through human epidermis from gels; assay type: in vitro ADME; details: gels of Example 5; 37° C.; sampled at 3, 8 and 24 hours
Method: Circular pieces of human epidermis were mounted in horizontal permeation cells (1.13 cm^2 of effective permeating surface) with the stratum corneum facing the donor compartment of the cell. A known volume (20-23 ml) of 0.2M TRIS buffer pH 7.5 (the receptor solution) was placed in the receptor compartment. The cell was then placed in a water bath-shaker at 37° C. and allowed to equilibrate. A 0.2 ml aliquot of the tested formulation was transferred to the donor compartment. Occlusion was achieved by the use of a teflon film in contact with the formulation. At 3, 8 and 24 hours, the receptor solutions were removed and replaced with equal volumes of fresh receptor solution previously equilibrated at 37° C. Chloroquine was quantified in the samples by fluorometrical measurements. These were carried out at room temperature in a Perkin-ElmerLS-5B luminescence spectrometer. The samples were adjusted to pH 8.65 at a final TRIS concentration of 0.1M and 30% (vol/vol) ethanol. The excitation wavelength was 333 nm and the emission wavelength was 382 nm. Chloroquine concentrations were extrapolated by comparison with a standard curve obtained under the same conditions. […] For each formulation condition, eight permeation cells were used. Results are presented as the means with their associated standard error.

lysosomes = details: literature; cited from earlier work
in vitro = details: human, skin fibroblasts
Source text: as §1, §2, §3, §4, §5, §6, §7

[5] = against chloroquine cytotoxicity, agent 10^-2 M
[6] = against chloroquine cytotoxicity, agent 10^-5 M
[7] = against propranolol cytotoxicity, agent 10^-5 M

## CNc1ccc2oc(C[C@H]3O[C@@]4(CC[C@H]3C)O[C@H]([C@H](C)C(=O)c3ccc[nH]3)[C@H](C)C[C@H]4C)nc2c1C(=O)O [A23187]
Human skin fibroblasts [1]; against chloroquine cytotoxicity, agent 10^-6 M
  Factor of Protection, Chloroquine (ID50 with agent / ID50 alone): 11
Human skin fibroblasts [1]; against propranolol cytotoxicity, agent 10^-6 M
  Factor of Protection, Propranolol (ID50 with agent / ID50 alone): 1

## CN1CCC[C@@H]1CCO[C@](C)(c1ccccc1)c1ccc(Cl)cc1 [Clemastine]
Human skin fibroblasts [1]
  Factor of Protection (ID50 with monensin / ID50 alone): 1.2

## Oc1ccc2ccccc2c1-c1c(O)ccc2ccccc12 [(R)(+)-1,1'-bi-2-Naphthol, (R)(+)-1,1'-bi-2-naphthol]
Human skin fibroblasts [1]; against chloroquine cytotoxicity, agent 3.5 × 10^-5 M
  Factor of Protection, Chloroquine (ID50 with agent / ID50 alone): 2.9

## CCNCC [Diethylamine]
Human skin fibroblasts [1]; [5]
  Factor of Protection, Chloroquine (ID50 with agent / ID50 alone): 3.3

## CC[C@@]1([C@@H]2O[C@@H]([C@H]3O[C@@](O)(CO)[C@H](C)C[C@@H]3C)C[C@@H]2C)CC[C@H]([C@]2(C)CC[C@]3(C[C@H](O)[C@@H](C)[C@@H]([C@@H](C)[C@@H](OC)[C@H](C)C(=O)O)O3)O2)O1 [Monensin, monensin]
Human skin fibroblasts [1]; 10^-6 M monensin, clemastine, imipramine, chlorpromazine, quinacrine, chloroquine
  Effect of monensin on toxicity of five weak base drugs: reduced the toxicity of all the drugs
Human skin fibroblasts [1]; [6]
  Factor of Protection, Chloroquine (ID50 with agent / ID50 alone): 19
Human skin fibroblasts [1]; against propranolol cytotoxicity, agent 10^-5 M, pre-treatment of 2 hours with agent
  Factor of Protection, Propranolol (ID50 with agent / ID50 alone): 1.41
Human skin fibroblasts [1]; monensin 10^-8 M to 10^-5 M
  Effect of monensin on propranolol toxicity: dose-dependent decrease of propranolol toxicity
Human skin fibroblasts [2]; propranolol 2×10^-7 M, monensin 10^-5 M
  Propranolol uptake at 10^-5 M monensin: negligible
Human skin fibroblasts [2]; propranolol 2×10^-7 M, monensin 10^-8 M to 10^-5 M
  Effect of monensin on propranolol uptake in the cells: decreased propranolol uptake in the cells in a dose-dependent manner
Human skin fibroblasts [2]; with propranolol 2×10^-7 M, monensin 10^-5 M
  Viability of cells at 10^-5 M monensin: fully viable
[3]
  Effect of monensin on irritant reaction (erythema): reduced the irritant reaction

## CC(C)[C@@H]1NC(=O)[C@H](C)OC(=O)[C@@H](C(C)C)NC(=O)[C@@H](C(C)C)OC(=O)[C@H](C(C)C)NC(=O)[C@H](C)OC(=O)[C@@H](C(C)C)NC(=O)[C@@H](C(C)C)OC(=O)[C@H](C(C)C)NC(=O)[C@H](C)OC(=O)[C@@H](C(C)C)NC(=O)[C@@H](C(C)C)OC1=O [Valinomycin]
Human skin fibroblasts [1]; [6]
  Factor of Protection, Chloroquine (ID50 with agent / ID50 alone): 13
Human skin fibroblasts [1]; [7]
  Factor of Protection, Propranolol (ID50 with agent / ID50 alone): 1

## C[C@@H]1C[C@H]2CC[C@H](O2)[C@H](C)C(=O)O[C@@H](C)C[C@@H]2CC[C@@H](O2)[C@@H](C)C(=O)O[C@H](C)C[C@H]2CC[C@H](O2)[C@H](C)C(=O)O[C@@H](C)C[C@@H]2CC[C@@H](O2)[C@@H](C)C(=O)O1 [Nonactin]
Human skin fibroblasts [1]; against chloroquine cytotoxicity, agent 5 × 10^-6 M
  Factor of Protection, Chloroquine (ID50 with agent / ID50 alone): 26
Human skin fibroblasts [1]; against propranolol cytotoxicity, agent 5 × 10^-6 M
  Factor of Protection, Propranolol (ID50 with agent / ID50 alone): 1

## CCN(CC)CCCC(C)Nc1ccnc2cc(Cl)ccc12 (stereo not shown) [Chloroquine, chloroquine]
[4]
  Permeation through human epidermis with versus without ammonium chloride: the same
lysosomes
  Accumulation in lysosomes: have been shown to accumulate in lysosomes
In vitro; ID50 (M), Drug + Monensin
  CC50 at 16 h: 0.0007 M
In vitro; ID50 (M), Drug Alone
  CC50 at 16 h: 7e-05 M
Human skin fibroblasts [1]
  Factor of Protection (ID50 with monensin / ID50 alone): 10.0
  Factor of Protection, Propranolol (ID50 with agent / ID50 alone): 1

## NCCO [Ethanolamine]
Human skin fibroblasts [1]
  Factor of Protection, Chloroquine (ID50 with agent / ID50 alone): 6.4

## CN(C)CCCN1c2ccccc2CCc2ccccc21 [Imipramine]
In vitro; ID50 (M), Drug + Monensin
  CC50 at 16 h: 0.00027 M
In vitro; ID50 (M), Drug Alone
  CC50 at 16 h: 0.00019 M
Human skin fibroblasts [1]
  Factor of Protection (ID50 with monensin / ID50 alone): 1.4

## OCCNCCO [Diethanolamine]
Human skin fibroblasts [1]
  Factor of Protection, Chloroquine (ID50 with agent / ID50 alone): 1.5

## Ammonium chloride
Human skin fibroblasts [1]; against chloroquine cytotoxicity, agent 4 × 10^-2 M
  Factor of Protection, Chloroquine (ID50 with agent / ID50 alone): 26
Human skin fibroblasts [1]; against propranolol cytotoxicity, agent 4 × 10^-2 M, pre-treatment of 2 hours with agent
  Factor of Protection, Propranolol (ID50 with agent / ID50 alone): 1.3

## CO[C@@H]1C[C@@H](C[C@H]2CC[C@H](C)[C@H]([C@@H](C)C(=O)O)O2)O[C@]2(O[C@](C)([C@H]3CC[C@@](C)([C@@H]4O[C@@H]([C@H]5O[C@@](O)(CO)[C@H](C)C[C@@H]5C)C[C@@H]4C)O3)C[C@H]2C)[C@@H]1C [Nigericin]
Human skin fibroblasts [1]; against chloroquine cytotoxicity, agent 1.5 × 10^-7 M
  Factor of Protection, Chloroquine (ID50 with agent / ID50 alone): 11

## N#CC(C#N)=NNc1cccc(Cl)c1 [Carbonyl cyanide m-chlorophenylhydrazone, carbonyl cyanide m-chlorophenylhydrazone]
Human skin fibroblasts [1]; [6]
  Factor of Protection, Chloroquine (ID50 with agent / ID50 alone): 13
Human skin fibroblasts [1]; [7]
  Factor of Protection, Propranolol (ID50 with agent / ID50 alone): 1

## CC(C)NCC(O)COc1cccc2ccccc12 (stereo not shown) [Propranolol, propranolol]
lysosomes
  Accumulation in lysosomes: have been shown to accumulate in lysosomes
In vitro; ID50 (concentration of drug required to kill 50% of the cells), drug alone
  CC50 at 16 h: 0.00028 M
In vitro; ID50 (concentration of drug required to kill 50% of the cells), drug with monensin
  CC50 at 16 h: 0.00038 M
Human skin fibroblasts [1]
  Factor of Protection, Chloroquine (ID50 with agent / ID50 alone): 1.8

## CN(C)CCCN1c2ccccc2Sc2ccc(Cl)cc21 [Chlorpromazine]
In vitro; ID50 (M), Drug + Monensin, Table A, with 10^-6 M monensin, 16 h
  CC50 at 16 h: 1.6e-05 M
In vitro; ID50 (M), Drug Alone, Table A, 16 h
  CC50 at 16 h: 1e-05 M
Human skin fibroblasts [1]
  Factor of Protection (ID50 with monensin / ID50 alone): 1.6

## CCN(CC)CCCC(C)Nc1c2ccc(Cl)cc2nc2ccc(OC)cc12 (stereo not shown) [Quinacrine]
In vitro; ID50 (M), Drug + Monensin
  CC50 at 16 h: 4.2e-05 M
In vitro; ID50 (M), Drug Alone
  CC50 at 16 h: 1.3e-05 M
Human skin fibroblasts [1]
  Factor of Protection (ID50 with monensin / ID50 alone): 3.2

## CC(C)N [Isopropylamine]
Human skin fibroblasts [1]; [5]
  Factor of Protection, Chloroquine (ID50 with agent / ID50 alone): 6.2

## NC(CO)(CO)CO [Tromethamine]
Human skin fibroblasts [1]
  Factor of Protection, Chloroquine (ID50 with agent / ID50 alone): 1.2

## Gramicidin D
Human skin fibroblasts [1]; [6]
  Factor of Protection, Chloroquine (ID50 with agent / ID50 alone): 31
Human skin fibroblasts [1]; [7]
  Factor of Protection, Propranolol (ID50 with agent / ID50 alone): 1

## C1COCCOCCOCCOCCO1 [15-Crown-5]
Human skin fibroblasts [1]
  Factor of Protection, Chloroquine (ID50 with agent / ID50 alone): 1
  Factor of Protection, Propranolol (ID50 with agent / ID50 alone): 1
